Each structure is given as a SMILES string. Values joined by “and” are separate entries in the source; they are usually repeats but may differ in a detail not shown here. Equal entries are not always repeated. Where two headings read alike, the source gives them in different places. Some results are limits rather than exact numbers.

Test [1] deals with T1, single chain tethered (tandem) HIV protease (HIV-1 M:B_HXB2R, UniProt P04585).
T1 construct: purified enzyme, FITC/biotin substrate assay
Nature of the test: Tandem HIV protease assay. The class given is biochemical. The following applies: read-out: FITC KI; Table II; enzyme HIV1TANDEM. The method, then: In the enzyme inhibition assay described above, the sensitivity of Ki value determination is in part limited by the ability to continue to lower the enzyme concentration for compounds with high binding affinity. To prevent de-dimerization at low enzyme concentration, a tandemly linked enzyme is prepared in which the two monomers are covalently linked by an appropriate stretch of amino acid residues. Using the latter enzyme, the sensitivity of the inhibition assay is improved since much lower enzyme concentration can be utilized, as compared to the condition using the wild-type enzyme.
The starting inhibitor concentrations are determined based on preliminary enzyme inhibition screening results which estimate the expected potency of the inhibitor. Inhibitor concentrations are then prepared using the Biomek 1000 (Beckman) and the Quadra 96 (Tomtec). Substrate (biotinylated at the amino terminal arginine and fluorescently labeled with fluorescein at the carboxyl terminal lysine), inhibitor and the tandem enzyme are allowed to react in solution at pH 5.5 (buffers identical to those used with the native dimeric enzyme) in the dark for 96 hours. Streptavidin coated polystyrene beads are added to stop the reaction. The labeled cleavage product is separated from unreacted substrate via filtration. Residual fluorescence is quantitated with the Idexx SM2000 (Idexx) and the resulting data are analyzed using the NLLSF program.

The target in a further test is HIV-1 protease (Human immunodeficiency virus type 1 group M subtype B, UniProt P04585). The test is described as follows: biochemical. In short, it runs like this:
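Percent inhibition came from fluorescence of FITC-tagged cleavage product, separated by filtration from uncleaved substrate captured on streptavidin-coated beads. The enzyme (10 μl of 0.1 μM) and compound acted on a biotin/FITC dual-labelled peptide for one hour at room temperature in the dark. The reaction ran in 0.1 M sodium acetate, pH 5.5, with 1.0 M NaCl and 0.05% NP-40.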

The mark [2] stands for this setting: Table II, enzyme HIV-1, DOSE 0.123 (unit not given).
[3] abbreviates: Table II, enzyme HIV-1, DOSE 0.370 (unit not given).
The mark [4] stands for this setting: Table II, enzyme HIV-1, DOSE 1.100 (unit not given).
The mark [5] stands for this setting: Table II, enzyme HIV-1, DOSE 3.300 (unit not given).
The mark [6] stands for this setting: Table II, enzyme HIV-1, DOSE 10.000 (unit not given).
The mark [7] stands for this setting: Table II, enzyme HIV-1, DOSE 30.000 (unit not given).

As a reminder, the Ki is the dissociation constant of the complex between target and ligand, obtained from inhibition or displacement. Consider `Cn1cnc(S(=O)(=O)Nc2cccc(C(C3=C(O)CC(CCc4ccccc4)(CCC(F)(F)F)OC3=O)C(C)(C)C)c2)c1` (single isomer, unassigned) [Example 273, N-[3-(R or S)-[1-[5,6-dihydro-4-hydroxy-2-oxo-6-(R or S)-(2-phenethyl)-6-(3,3,3-trifluoropropyl)-2H-pyran-3-yl]-2,2-dimethylpropyl]phenyl]-1-methyl-1H-imidazole-4-sulfonamide], for which the Ki in test [1] was 2.3 nM. The “PROTEASE % INHIB.” value is recorded as less than 10% on HIV-1 protease (setting [2]); 23.24% on HIV-1 protease (setting [3]); 75.38% on HIV-1 protease (setting [4]); 94.63% at HIV-1 protease (setting [5]); 95.93% on HIV-1 protease (setting [6]); 91% at HIV-1 protease (setting [7]).
As to `Cn1cnc(S(=O)(=O)Nc2cccc(C(C3=C(O)CC(CCc4ccccc4)(CCC(F)(F)F)OC3=O)C(C)(C)C)c2)c1` (single isomer, unassigned) [Example 276, N-[3-(R or S)-[1-[5,6-dihydro-4-hydroxy-2-oxo-6-(R or S)-(2-phenethyl)-6-(3,3,3-trifluoropropyl)-2H-pyran-3-yl]-2,2-dimethylpropyl]phenyl]-1-methyl-1H-imidazole-4-sulfonamide], the inhibition constant (Ki) in test [1] turned out to be 33 nM. The “PROTEASE % INHIB.” value at HIV-1 protease (setting [2]) amounted to 16.49%; at HIV-1 protease (setting [3]), 38.95%; at HIV-1 protease (setting [4]), 66.1%; on HIV-1 protease (setting [5]), 90.01%; at HIV-1 protease (setting [6]), 90.97%; on HIV-1 protease (setting [7]), 87.6%.
In the case of `CCCC1(CCc2ccccc2)CC(O)=C(C(c2cccc(NS(=O)(=O)c3ccccn3)c2)C(C)(C)C)C(=O)O1` (single isomer, unassigned) [Example 278, N-[3-(R or S)-[1-[5,6-dihydro-4-hydroxy-2-oxo-6-(2-phenethyl)-[6-(R or S)-propyl]-2H-pyran-3-yl]-2,2-dimethylpropyl]phenyl]-2-pyridinesulfonamide], the Ki in test [1] came out at 0.04 nM. In addition, the “PROTEASE % INHIB.” value is 76.76% at HIV-1 protease (setting [2]); 86.99% on HIV-1 protease (setting [3]); 95.6% at HIV-1 protease (setting [4]); 96.91% on HIV-1 protease (setting [5]); 93.32% on HIV-1 protease (setting [6]); 86.18% at HIV-1 protease (setting [7]).
For `CCCC1(CCC)CC(O)=C(C(c2cccc(NS(=O)(=O)c3ccc(C(F)(F)F)cn3)c2)C(C)(C)C)C(=O)O1` (single isomer, unassigned) [Example 285, 5-Trifluoromethyl-N-[3-(R or S)-[1-[4-hydroxy-2-oxo-6,6-di-n-propyl-5,6-dihydro-2H-pyran-3-yl]-2,2-dimethylpropyl]-phenyl]-2-pyridinesulfonamide], in test [1], the Ki came to 0.015 nM. In addition, the “PROTEASE % INHIB.” value is recorded as 81.8% on HIV-1 protease (setting [2]); 95.8% at HIV-1 protease (setting [3]); 99.11% on HIV-1 protease (setting [4]); 109.33% on HIV-1 protease (setting [5]); 104.61% on HIV-1 protease (setting [6]); 86.84% at HIV-1 protease (setting [7]).
As for `CCCC1(CCC)CC(O)=C(C(c2cccc(NS(=O)(=O)c3ccc(C(F)(F)F)cn3)c2)C(C)(C)C)C(=O)O1` (single isomer, unassigned) [Example 286, 5-Trifluoromethyl-N-[3-(R or S)-[1-[4-hydroxy-2-oxo-6,6-di-n-propyl-5,6-dihydro-2H-pyran-3-yl]-2,2-dimethylpropyl]-phenyl]1-2-pyridinesulfonamide], the Ki in test [1] came out at 13.3 nM. For the same compound, the “PROTEASE % INHIB.” value is recorded as 34.76% on HIV-1 protease (setting [2]); 68.74% on HIV-1 protease (setting [3]); 89.29% on HIV-1 protease (setting [4]); 93.11% at HIV-1 protease (setting [5]); 108.17% on HIV-1 protease (setting [6]); 95.31% on HIV-1 protease (setting [7]).
Regarding `CCC[C@@]1(CCc2ccccc2)CC(O)=C([C@@H](c2cccc(NS(=O)(=O)c3ccc(C#N)cn3)c2)C(C)(C)C)C(=O)O1` (single isomer, unassigned) [Example 300, 5-Cyano-N-[3(R or S)-(1-[5,6-dihydro-4-hydroxy-2-oxo-6(R or S)-(2-phenylethyl)-6-propyl-2H-pyran-3-yl]-2,2-dimethylpropyl)-phenyl]-2-pyridinesulfonamide], the Ki in test [1] is 0.1 nM. At HIV-1 protease, the “PROTEASE % INHIB.” value is 90.61 and 99.05 and 111.45 and 109.19 and 105.56 and 104.91.
As to `CCCC1(CCc2ccccc2)CC(O)=C(C(c2cccc(NS(=O)(=O)c3cn(C)cn3)c2)C(C)(C)C)C(=O)O1` (single isomer, unassigned) [Example 307, N-[3(R or S)-[1-(5,6-Dihydro-4-hydroxy-2-oxo-6(R or S)-[2-phenylethyl]-6-propyl-2H-pyran-3-yl)-2,2-dimethylopropyl]phenyl]-1-methyl-1H-imidazole-4-sulfonamide], in test [1], the Ki was found to be 0.072 nM. For the same compound, the “PROTEASE % INHIB.” value was found to be 77.39% at HIV-1 protease (setting [2]); 99.85% at HIV-1 protease (setting [3]); 107.87% at HIV-1 protease (setting [4]); 93.34% on HIV-1 protease (setting [5]); 83.49% on HIV-1 protease (setting [6]); 69.74% on HIV-1 protease (setting [7]).
For the compound `CCC[C@@]1(CCc2ccccc2)CC(O)=C([C@@H](c2cccc(NS(=O)(=O)c3cn(C)cn3)c2)C(C)(C)C)C(=O)O1` (single isomer, unassigned) [Example 308, N-[3(R or S)-[1-(5,6-Dihydro-4-hydroxy-2-oxo-6(R or S)-[2-phenylethyl]-6-propyl-2H-pyran-3-yl)-2,2-dimethylpropyl]phenyl]-1-methyl-1H-imidazole-4-sulfonamide], the Ki in test [1] was 0.074 nM. Also, the “PROTEASE % INHIB.” value on HIV-1 protease (setting [2]) is 75.06%; at HIV-1 protease (setting [3]), 108.14%; at HIV-1 protease (setting [4]), 95.01%; at HIV-1 protease (setting [5]) it was 108.43%; on HIV-1 protease (setting [6]) it was 110.75%; on HIV-1 protease (setting [7]), 96.28%.
Regarding `CCC[C@@]1(CCc2ccccc2)CC(O)=C([C@@H](c2cccc(NS(=O)(=O)c3cn(C)cn3)c2)C(C)(C)C)C(=O)O1` (single isomer, unassigned) [Example 310, N-[3(R or S)-[1-(5,6-Dihydro-4-hydroxy-2-oxo-6(R or S)-[2-phenylethyl]-6-propyl-2H-pyran-3-yl)-2,2-dimethylpropyl]phenyl]-1-methyl-1H-imidazole-4-sulfonamide], the Ki in test [1] was determined as 1.5 nM. Besides, the “PROTEASE % INHIB.” value on HIV-1 protease (setting [2]) came out at 16.81%; on HIV-1 protease (setting [3]) it was 50.11%; on HIV-1 protease (setting [4]), 78.69%; on HIV-1 protease (setting [5]), 100.22%; on HIV-1 protease (setting [6]), 124.77%; at HIV-1 protease (setting [7]), 110.91%.
For the compound `CCC[C@@]1(CCc2ccccc2)CC(O)=C([C@H](CC)c2cccc(NS(=O)(=O)c3ccc(N)cn3)c2)C(=O)O1` (single isomer, unassigned) [Example 314, 5-Amino-N-[3(R or S)-(1-[5,6-dihydro-4-hydroxy-2-oxo-6(R or S)-(2-phenylethyl)-6-propyl-2H-pyran-3-yl]propyl)phenyl]-2-pyridinesulfonamide], the Ki in test [1] came to 0.7 nM. Further, the “PROTEASE % INHIB.” value at HIV-1 protease (setting [2]) was found to be 82.92%; on HIV-1 protease (setting [3]), 96.14%; at HIV-1 protease (setting [4]) it was 114.86%; on HIV-1 protease (setting [5]), 100.76%; at HIV-1 protease (setting [6]), 88.75%; on HIV-1 protease (setting [7]) it was 73.42%.
`CCC[C@@]1(CCc2ccccc2)CC(O)=C([C@H](CC)c2cccc(NS(=O)(=O)c3ccc(N)cn3)c2)C(=O)O1` (single isomer, unassigned) [Example 315, 5-Amino-N-[3(R or S)-(1-[5,6-dihydro-4-hydroxy-2-oxo-6(R or S)-(2-phenylethyl)-6-propyl-2H-pyran-3-yl]propyl)phenyl]-2-pyridinesulfonamide]: in test [1], the Ki amounted to 0.029 nM. For the same compound, the “PROTEASE % INHIB.” value on HIV-1 protease (setting [2]) is 79.95%; on HIV-1 protease (setting [3]), 87.25%; on HIV-1 protease (setting [4]), 88.08%; at HIV-1 protease (setting [5]), 97.03%; on HIV-1 protease (setting [6]), 100.2%; at HIV-1 protease (setting [7]) it was 106.4%.
For `CCC[C@@]1(CCc2ccc(F)cc2)CC(O)=C([C@@H](c2cccc(NS(=O)(=O)c3ccc(N)cn3)c2)C(C)(C)C)C(=O)O1` (single isomer, unassigned) [Example 316, 5-Amino-N-[3(R or S)-(1-[6(R or S)-(2-[4-fluorophenyl]ethyl)-5,6-dihydro-4-hydroxy-2-oxo-6-propyl-2H-pyran-3-yl]-2,2-dimethyl-propyl)phenyl]-2-pyridine-sulfonamide], the Ki in test [1] came to 0.357 nM. The “PROTEASE % INHIB.” value at HIV-1 protease (setting [2]) is on record as 75.49%; on HIV-1 protease (setting [3]), 85.02%; on HIV-1 protease (setting [4]), 100.32%; at HIV-1 protease (setting [5]), 95.46%; at HIV-1 protease (setting [6]), 99.71%; on HIV-1 protease (setting [7]), 87.91%.

Values taken from patent US6169181A, “Compounds useful to treat retroviral infections” (Pharmacia & Upjohn Company, priority 1998, dated 2001).
